Numbers after ± are expanded uncertainties.
Assay: xn = mol fraction of the nth substance listed
Conditions: 102.24 kPa, Liquid; for speed of sound: Frequency=5 MHz, Single path-length method; for mass density: Vibrating tube method

CCC(=O)[O-].C[NH2+]CCO [2-hydroxy-N-methylethanaminium propionate] + O
Conditions | mass density [kg/m3] | speed of sound [m/s]
298.15 K, x1 = 0.02 | 1016.8 ± 1.7 | 1628.3 ± 8.1
298.15 K, x1 = 0.0501 | 1039.1 ± 1.7 | 1746.5 ± 8
298.15 K, x1 = 0.1001 | 1056.2 ± 1.7 | 1820.9 ± 8
298.15 K, x1 = 0.101 | 1055.8 ± 1.7 | 1818.1 ± 8
298.15 K, x1 = 0.2006 | 1072.5 ± 1.7 | 1827.2 ± 8
298.15 K, x1 = 0.301 | 1072.6 ± 1.7 | 1790.1 ± 8
298.15 K, x1 = 0.3978 | 1074 ± 1.7 | 1757 ± 8
298.15 K, x1 = 0.4976 | 1072.3 ± 1.7 | 1726.2 ± 8
298.15 K, x1 = 0.5972 | 1071.9 ± 1.7 | 1721 ± 8
298.15 K, x1 = 0.8006 | 1068.7 ± 1.7 | 1684.5 ± 8
298.15 K, x1 = 1 | 1065.8 ± 1.7 | 1638.4 ± 8.1
303.15 K, x1 = 0.02 | 1013.4 ± 1.7 | 1630.6 ± 8.1
303.15 K, x1 = 0.0501 | 1036.3 ± 1.7 | 1741.6 ± 8
303.15 K, x1 = 0.1001 | 1053.4 ± 1.7 | 1810.8 ± 8
303.15 K, x1 = 0.101 | 1052.8 ± 1.7 | 1807 ± 8
303.15 K, x1 = 0.2006 | 1069.5 ± 1.7 | 1812.4 ± 8
303.15 K, x1 = 0.301 | 1069.5 ± 1.7 | 1775.9 ± 8
303.15 K, x1 = 0.3978 | 1070.9 ± 1.7 | 1742.3 ± 8
303.15 K, x1 = 0.4976 | 1069.2 ± 1.7 | 1711 ± 8
303.15 K, x1 = 0.5972 | 1068.7 ± 1.7 | 1705.5 ± 8
303.15 K, x1 = 0.8006 | 1065.4 ± 1.7 | 1668.3 ± 8
303.15 K, x1 = 1 | 1062.6 ± 1.7 | 1624.6 ± 8.1
308.15 K, x1 = 0.02 | 1010 ± 1.7 | 1632.8 ± 8
308.15 K, x1 = 0.0501 | 1033.5 ± 1.7 | 1736.7 ± 8
308.15 K, x1 = 0.1001 | 1050.7 ± 1.7 | 1800.7 ± 8
308.15 K, x1 = 0.101 | 1049.9 ± 1.7 | 1795.9 ± 8
308.15 K, x1 = 0.2006 | 1066.5 ± 1.7 | 1797.6 ± 8
308.15 K, x1 = 0.301 | 1066.4 ± 1.7 | 1761.6 ± 8
308.15 K, x1 = 0.3978 | 1067.9 ± 1.7 | 1727.6 ± 8
308.15 K, x1 = 0.4976 | 1066.1 ± 1.7 | 1695.7 ± 8
308.15 K, x1 = 0.5972 | 1065.6 ± 1.7 | 1689.9 ± 8
308.15 K, x1 = 0.8006 | 1062.2 ± 1.7 | 1652 ± 8
308.15 K, x1 = 1 | 1059.4 ± 1.7 | 1607 ± 8.1
313.15 K, x1 = 0.02 | 1006.6 ± 1.7 | 1635.1 ± 8
313.15 K, x1 = 0.0501 | 1030.6 ± 1.7 | 1731.8 ± 8
313.15 K, x1 = 0.1001 | 1047.9 ± 1.7 | 1790.6 ± 8
313.15 K, x1 = 0.101 | 1046.9 ± 1.7 | 1784.7 ± 8
313.15 K, x1 = 0.2006 | 1063.5 ± 1.7 | 1782.8 ± 8
313.15 K, x1 = 0.301 | 1063.3 ± 1.7 | 1747.4 ± 8
313.15 K, x1 = 0.3978 | 1064.8 ± 1.7 | 1712.8 ± 8
313.15 K, x1 = 0.4976 | 1063 ± 1.7 | 1680.5 ± 8
313.15 K, x1 = 0.5972 | 1062.5 ± 1.7 | 1674.4 ± 8
313.15 K, x1 = 0.8006 | 1059 ± 1.7 | 1635.7 ± 8
313.15 K, x1 = 1 | 1056.2 ± 1.7 | 1588.5 ± 8.1
318.15 K, x1 = 0.02 | 1003.2 ± 1.7 | 1637.4 ± 8
318.15 K, x1 = 0.0501 | 1027.8 ± 1.7 | 1726.9 ± 8
318.15 K, x1 = 0.1001 | 1045.2 ± 1.7 | 1780.5 ± 8
318.15 K, x1 = 0.101 | 1043.9 ± 1.7 | 1773.6 ± 8
318.15 K, x1 = 0.2006 | 1060.5 ± 1.7 | 1768 ± 8
318.15 K, x1 = 0.301 | 1060.2 ± 1.7 | 1733.1 ± 8
318.15 K, x1 = 0.3978 | 1061.8 ± 1.7 | 1698.1 ± 8
318.15 K, x1 = 0.4976 | 1059.8 ± 1.7 | 1665.2 ± 8
318.15 K, x1 = 0.5972 | 1059.4 ± 1.7 | 1658.8 ± 8
318.15 K, x1 = 0.8006 | 1055.8 ± 1.7 | 1619.5 ± 8
318.15 K, x1 = 1 | 1053 ± 1.7 | 1573.2 ± 8.1
323.15 K, x1 = 0.02 | 999.8 ± 1.7 | 1639.6 ± 8
323.15 K, x1 = 0.0501 | 1025 ± 1.7 | 1722 ± 8
323.15 K, x1 = 0.1001 | 1042.4 ± 1.7 | 1770.4 ± 8
323.15 K, x1 = 0.101 | 1040.9 ± 1.7 | 1762.5 ± 8
323.15 K, x1 = 0.2006 | 1057.5 ± 1.7 | 1753.2 ± 8
323.15 K, x1 = 0.301 | 1057.1 ± 1.7 | 1718.9 ± 8
323.15 K, x1 = 0.3978 | 1058.7 ± 1.7 | 1683.3 ± 8
323.15 K, x1 = 0.4976 | 1056.7 ± 1.7 | 1650 ± 8
323.15 K, x1 = 0.5972 | 1056.2 ± 1.7 | 1643.3 ± 8
323.15 K, x1 = 0.8006 | 1052.6 ± 1.7 | 1603.2 ± 8
323.15 K, x1 = 1 | 1049.8 ± 1.7 | 1558.3 ± 8.1
328.15 K, x1 = 0.02 | 996.4 ± 1.7 | 1641.9 ± 8
328.15 K, x1 = 0.0501 | 1022.2 ± 1.7 | 1717.1 ± 8
328.15 K, x1 = 0.1001 | 1039.7 ± 1.7 | 1760.3 ± 8
328.15 K, x1 = 0.101 | 1037.9 ± 1.7 | 1751.4 ± 8
328.15 K, x1 = 0.2006 | 1054.5 ± 1.7 | 1738.3 ± 8
328.15 K, x1 = 0.301 | 1054 ± 1.7 | 1704.6 ± 8
328.15 K, x1 = 0.3978 | 1055.6 ± 1.7 | 1668.6 ± 8
328.15 K, x1 = 0.4976 | 1053.6 ± 1.7 | 1634.8 ± 8
328.15 K, x1 = 0.5972 | 1053.1 ± 1.7 | 1627.8 ± 8
328.15 K, x1 = 0.8006 | 1049.3 ± 1.7 | 1587 ± 8
328.15 K, x1 = 1 | 1046.5 ± 1.7 | 1543.7 ± 8.1
333.15 K, x1 = 0.02 | 993 ± 1.7 | 1644.1 ± 8
333.15 K, x1 = 0.0501 | 1019.4 ± 1.7 | 1712.2 ± 8
333.15 K, x1 = 0.1001 | 1036.9 ± 1.7 | 1750.3 ± 8
333.15 K, x1 = 0.101 | 1035 ± 1.7 | 1740.3 ± 8
333.15 K, x1 = 0.2006 | 1051.5 ± 1.7 | 1723.5 ± 8
333.15 K, x1 = 0.301 | 1051 ± 1.7 | 1690.4 ± 8
333.15 K, x1 = 0.3978 | 1052.6 ± 1.7 | 1653.9 ± 8
333.15 K, x1 = 0.4976 | 1050.5 ± 1.7 | 1619.5 ± 8
333.15 K, x1 = 0.5972 | 1050 ± 1.7 | 1612.2 ± 8
333.15 K, x1 = 0.8006 | 1046.1 ± 1.7 | 1570.7 ± 8
333.15 K, x1 = 1 | 1043.2 ± 1.7 | 1527 ± 8.1
